In one assay the test system is FLAG-RR12EE345L. Description: capture and presentation of secreted FLAG leucine zipper by mutant blocking leucine zippers in C1498 cells. The format is cell-based. As to conditions: FIG. 20. The text has this:
A series of mutations were made in the “g” residues of the blocking leucine zipper to reduce heterodimerization affinity between the capture leucine zipper and the linked blocking leucine zipper. The following six mutants were made: 1N mutant: E1R2EE345L (having the amino acid sequence set forth in SEQ ID NO: 98), 1M mutant: RR123E45L (having the amino acid sequence set forth in SEQ ID NO: 99), 2N mutant: EE12345L (having the amino acid sequence set forth in SEQ ID NO: 102), 2M mutant: RR1234E5L (having the amino acid sequence set forth in SEQ ID NO: 103), 3N mutant: EE12R3E45L (having the amino acid sequence set forth in SEQ ID NO: 106), and 3C mutant: RR12345L (having the amino acid sequence set forth in SEQ ID NO: 107).
C1498 cells were co-transduced with the FLAG-RR12EE345L GFP vector and one of the six mutants as part of RR12EE345L linker EE12RR345L BFP vector constructs. […] Thus, mutating the […] leucine zipper at “g” position residues to include repulsive amino acid interactions can reduce the degree of blocking by the linked […]-based mutant leucine zipper.

For the next assay, the target named is T1, iCaspase 9 (Homo sapiens, UniProt P55211, Q221R).
T1 construct: […]; expressed in transfected cells
T1 sequence (P55211 with tags, fused parts or gaps Q221R): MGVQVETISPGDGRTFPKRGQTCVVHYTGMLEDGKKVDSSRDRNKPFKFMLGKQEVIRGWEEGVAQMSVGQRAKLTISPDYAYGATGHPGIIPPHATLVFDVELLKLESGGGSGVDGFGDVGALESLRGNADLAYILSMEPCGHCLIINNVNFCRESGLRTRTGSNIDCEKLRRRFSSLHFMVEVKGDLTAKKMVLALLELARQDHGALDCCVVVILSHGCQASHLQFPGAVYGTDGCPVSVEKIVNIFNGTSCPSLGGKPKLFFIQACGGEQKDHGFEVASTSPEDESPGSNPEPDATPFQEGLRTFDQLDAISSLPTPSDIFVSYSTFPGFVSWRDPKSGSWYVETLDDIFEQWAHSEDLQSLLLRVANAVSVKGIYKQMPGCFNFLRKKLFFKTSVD
Briefly: activation of iCaspase 9 suicide gene by chemical inducer of dimerization in sorted dual-transduced T cells. The format is cell-based, mouse. The procedure: FIG. 5 depicts purification and testing of dual-transduced cells with iCaspase 9 and CD20-CAR. T cells comprising RR12EE345L-FLAG iCaspase 9 (vector 1) and RR12EE345L-linker-EE12RR345L-Thy1.1 CD20-CAR (vector 2) were incubated with EL4-CD19 and EL4-CD20 targets in the presence or absence of chemical inducer of dimerization (CID).
IL-18 secretion was assessed by ELISA. Interferon gamma secretion was assessed by cytometric bead array.

The test system of a further assay is CD20 mimotope. Briefly: antibody plus complement depletion of double transduced C1498 cells. The format is cell-based. As to conditions: RQR-RR12EE345L plus capture leucine zipper, in the presence of complement, FIG. 18. The protocol: Next, C1498 cells were double transduced with capture leucine zippers as shown in FIG. 18 and a second vector encoding the tandem CD20 mimotope/CD34 leucine zipper tag (RQR-RR12EE345L). Subsequently, the cells were incubated with anti-CD20 antibody Rituximab or irrelevant antibody Cetuximab in the presence of complement.
CD20 mimotope, sequence (as listed by the source): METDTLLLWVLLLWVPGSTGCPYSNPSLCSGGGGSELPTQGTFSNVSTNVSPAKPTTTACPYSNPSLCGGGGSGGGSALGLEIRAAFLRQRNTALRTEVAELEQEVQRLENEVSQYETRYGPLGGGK

This note sets out measurements from patent US20210179686A1, “CELL SORTING SYSTEMS AND METHODS OF USE” (MEMORIAL SLOAN-KETTERING CANCER CENTER, priority 2018, published 2021).

FLAG-RR12EE345L, sequence (as listed by the source): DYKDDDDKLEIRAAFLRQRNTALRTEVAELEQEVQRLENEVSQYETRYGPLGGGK

For the molecule “3N mutant: blocking leucine zipper mutant, amino acid sequence SEQ ID NO: 106 (LEIEAAFLRQENTALRTRVAELEQEVQRLENEVSQYETRYGPLGGGK)”, in the assay on FLAG-RR12EE345L (C1498 cells co-transduced with FLAG-RR12EE345L GFP vector), the “presentation of secreted leucine zipper” value was “enhanced presentation of secreted leucine zipper”. Moreover, the FLAG binding entry with FLAG-RR12EE345L (double transduced and single-transduced capture-zipper-only C1498 cells) was “increased FLAG binding in double transduced cells (intracellular pairing), but also in single-transduced capture leucine zipper-only cells (extracellular pairing)”. Turning to `CC[C@H](C(=O)N1CCCC[C@H]1C(=O)O[C@H](CCc1ccc(OC)c(OC)c1)c1cccc(OCC(=O)NCC(CNC(=O)COc2cccc([C@@H](CCc3ccc(OC)c(OC)c3)OC(=O)[C@@H]3CCCCN3C(=O)[C@@H](CC)c3cc(OC)c(OC)c(OC)c3)c2)CN(C)C)c1)c1cc(OC)c(OC)c(OC)c1` [chemical inducer of dimerization], the “induction of T cell apoptosis” value at iCaspase 9 (T cells with iCaspase 9 on one vector and CD20-CAR on the other, FIG. 5) is given as more than 90%. In addition, on iCaspase 9 (sorted cells with two vectors expressing CD19-CAR, CD20-CAR and iCaspase9, optionally IL-18, FIG. 6), the cell death entry was “about 90%”. Rituximab: the depletion of cells entry with CD20 mimotope is reported as “selective depletion of double transduced cells”.
